The test system of assay [1] is glutamic acid release from the hippocampus. The experiment in a line: Glutamic acid release from rat hippocampus sections (HPLC). The class given is cell-based.
Assay [2] deals with T1, PKC-ε (Homo sapiens, UniProt Q02156).
T1 sequence (Q02156 1-737): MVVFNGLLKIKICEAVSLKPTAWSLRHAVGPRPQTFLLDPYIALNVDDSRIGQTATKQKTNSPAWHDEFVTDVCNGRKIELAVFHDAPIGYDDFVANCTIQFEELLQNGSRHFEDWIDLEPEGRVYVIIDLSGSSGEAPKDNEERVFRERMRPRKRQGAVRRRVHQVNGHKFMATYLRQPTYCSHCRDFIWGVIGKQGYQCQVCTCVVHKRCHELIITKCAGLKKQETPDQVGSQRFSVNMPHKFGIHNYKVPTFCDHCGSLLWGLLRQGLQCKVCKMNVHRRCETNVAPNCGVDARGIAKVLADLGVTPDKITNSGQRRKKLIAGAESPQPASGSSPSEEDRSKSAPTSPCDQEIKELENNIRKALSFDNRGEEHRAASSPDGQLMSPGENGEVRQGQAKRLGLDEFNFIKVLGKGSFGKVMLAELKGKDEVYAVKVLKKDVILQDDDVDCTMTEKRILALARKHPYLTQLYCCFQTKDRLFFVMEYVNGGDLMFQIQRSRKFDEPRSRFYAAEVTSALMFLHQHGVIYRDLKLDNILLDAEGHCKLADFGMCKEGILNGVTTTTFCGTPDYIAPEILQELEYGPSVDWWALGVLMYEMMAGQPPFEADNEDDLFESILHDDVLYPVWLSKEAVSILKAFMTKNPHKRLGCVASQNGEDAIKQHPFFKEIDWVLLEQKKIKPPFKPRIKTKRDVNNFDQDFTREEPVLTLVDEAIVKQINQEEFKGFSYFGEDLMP
The experiment in a line: PKC assay in cell-free system with PKC isozymes. It counts as biochemical. On the procedure:
The PKC activity in a cell-free system was quantified by the method described in a publication [Kanno T et al., J Lipid Res 47 (6):1146-1156, 2006]. The summary is as described below.
Synthetic PKC substrate peptide (10 μM) was reacted with various PKC isozymes in a medium containing 20 mM Tris-HCl (pH 7.5), 5 mM Mg-acetate, 10 μM ATP and each DCP-LA optical isomer (10 μM) in the absence of phosphatidylserine and diacylglycerol at 30° C. for 5 min. When the activity with new types of PKC (PKC-δ, -ε, -η and -μ) was to be measured, a medium free of Ca^2+ was used and when the activity with other PKC isozyme was to be measured, a medium containing 100 μM Ca^2+ was used. After loading on reversed-phase HPLC (LC-10ATvp, Shimadzu Co., Kyoto, Japan), a substrate peptide peak and a new resultant product peak were detected at the absorbance of 214 nm. The areas of the non-phosphorylated and phosphorylated substrate peptides m were measured (total area corresponds to the concentration of PKC substrate peptide used), and the amount of phosphorylated substrate peptide was calculated. The phosphorylated substrate peptide level (pmol/l min) was used as an index of PKC activity.

The subject of assay [3] is serotonin release from the hypothalamus. As to the kind of experiment: Serotonin release from rat hypothalamus sections (HPLC). It counts as cell-based.
Assay [4] relates to dopamine release from the striatum. The experiment in a line: Dopamine release from rat striatum sections (HPLC). It counts as cell-based.

For the compound `CCCCC[C@@H]1C[C@@H]1C[C@@H]1C[C@H]1CCCCCCCC(=O)O` [α,β-DCP-LA, 8-[(1R,2S)-2-{(1R,2R)-2-pentylcyclopropylmethyl}-cyclopropyl]octanoic acid], the “glutamic acid release stimulation action compared to the other optical isomers” value in assay [1] (100 nM, in the presence of nicotine (1 μM), FIG. 7) is given as “remarkably high”. Moreover, the “concentration at which glutamic acid release stimulation action reaches maximum (bell-shaped)” value in assay [1] (rat hippocampus sections, FIG. 8) was “about 100 nM”. For the same compound, the “glutamic acid release, substance alone vs non-treated group” value in assay [1] (treated alone, FIG. 9) is “did not show a remarkable difference”. The “effect on glutamic acid release caused by nicotine” value in assay [1] (with nicotine (1 μM), FIG. 9) was “remarkably enhanced”. Moreover, in assay [2] (10 μM, absence of phosphatidylserine and diacylglycerol, FIG. 4), the “activation of PKC isozymes in cell-free system (selectivity)” value was “selective and direct activation of PKC-ε”. For the same compound, the “PKC-ε activation action compared to the other optical isomers” value in assay [2] (cell-free system, 10 μM, FIG. 6) is given as “highest ability”. Further, the “concentration at which the PKC activation action reaches maximum (bell-shaped)” value in assay [2] (cell-free system, FIG. 5) was “about 25 μM”. Also, in assay [3] (100 nM, in the presence of nicotine (1 μM), FIG. 13), the “serotonin release stimulation action compared to the other optical isomers” value was “remarkably high”. Moreover, in assay [3] (rat hypothalamus sections, FIG. 14), the “concentration at which serotonin release stimulation action reaches maximum (bell-shaped)” value is recorded as “about 100 nM”. Besides, the “serotonin release, substance alone vs non-treated group” value in assay [3] (treated alone, FIG. 15) is given as “did not show a remarkable difference”. In addition, in assay [3] (with nicotine (1 μM), FIG. 15), the “effect on serotonin release caused by nicotine” value is “remarkably enhanced”. Moreover, in assay [4] (100 nM, in the presence of nicotine (1 μM), FIG. 10), the “dopamine release stimulation action compared to the other optical isomers” value is on record as “remarkably high”. The “concentration at which dopamine release stimulation action reaches maximum (bell-shaped)” value in assay [4] (rat striatum sections, FIG. 11) is reported as “about 250 nM”. For the same compound, the “dopamine release, substance alone vs non-treated group” value in assay [4] (treated alone, FIG. 12) is “did not show a remarkable difference”. For the same compound, in assay [4] (with nicotine (1 μM), FIG. 12), the “effect on dopamine release caused by nicotine” value is given as “remarkably enhanced”.

The values above are taken from patent US9012500B2, “PKC-ε activator” (Nishizaki Bioinformation Research Institute, priority 2010, dated 2015).
